Measured values: PMC9011347, “Small-Molecule Inhibitors Targeting Lipolysis in Human Adipocytes” (Journal of the American Chemical Society, 2022)

Test: Stability of NG-497 exposed to HepG2 cells
Assay type: in vitro ADME
Conditions: human, cells treated 1 h with 40 μM NG-497, inhibitor removed, DMEM 10% FCS, read-out: half-life (T1/2) when exposed to HepG2 cells
Protocol: Figure 2 Development and characterization of the human ATGL inhibitor NG-497. (a) Structure and IC50 values of human ATGL inhibitors. (b) Dose-dependent inhibition of human ATGL by respective inhibitors. (c) ATGL activity was determined at the indicated substrate concentrations in the absence and presence of NG-497 (0.5 μM). Ki was determined by nonlinear regression analysis using GraphPad Prism. Lineweaver–Burk analysis of ATGL inhibition is shown in the inset. (d) Toxicity of NG-497 in HepG2 cells was determined after 24 h incubation at indicated concentrations. Cisplatin and DMSO were used as positive and negative controls, respectively. Cytotoxicity was determined using the Roche LDH Kit and calculated as relative LDH release compared to fully lysed cells. (e) Stability of NG-497 was analyzed via ultrahigh-performance liquid chromatography–mass spectrometry (UHPLC-MS) after incubation in human serum for 0 or 3 h at 37 °C. Atglistatin and a chemically related unstable compound were used as controls. […] NG-497 concentrations/well were determined at the indicated time points using UHPLC-MS. […] Statistical significance was determined via t test (*p < 0.05; **p < 0.01; ***p < 0.001) or ANOVA followed by Bonferroni post hoc test (^###p < 0.001). […] The detected 297 lipid species of both groups were analyzed with supervised multivariate analysis OPLS-DA and are shown as a loading plot. […]

Q: With `CCOc1ccc(-c2cc(OC)cc(C(=O)OC(C)C)n2)cc1` [NG-497] as the molecule, how does the half-life at 40 µM read?
A: 46 min
